Results reported in patent publication US20100227896A1, “USE OF VITAMIN PP COMPOUNDS” (ASTELLAS DEUTSCHLAND GMBH, priority 1998, published 2010).
Where two headings read alike, the source gives them in different places. Each block holds one molecule with its values, some of them ahead of it.

How the values were obtained:
THP-1 cells = experiment: Growth inhibition of THP-1 human leukaemia cells (WST-1 reagent, four days incubation); type: cell-based; conditions: for IC50: Homo sapiens; for effect on the growth-inhibiting effect of K22.097: THP-1 cells, summary of Table 1
Description: THP-1 cells derived from a human monocytic leukaemia plated at a density of 200,000 cells/ml in 96-well plastic dishes. Cultivation occurred in RPMI 1640 nutrient medium with 10% foetal calf serum (FCS) in a tissue culture incubator with a gas mixture of 5% CO2 and 95% air at a temperature of 37° C. For the individual concentrations and the controls without test substances as well as for the background with nutrient medium but without cells, three-fold batches were done for each. After four days of substance incubation 20 μl WST-1 reagent (Boehringer Mannheim) was respectfully pipetted in each individual well. After 30 to 60 minute incubation in the tissue culture incubator at 37° C. and 5% CO2, the light extinction was measured in an ELISA reader at 450 nm wave length. The backgrounds were each subtracted from the typical measured valves. (The IC50-values (defined as that concentration in which the cell growth was inhibited by 50%) was taken from the dose-response curves and given as a comparative measurement for the activity of the test compounds.
Furthermore, the anti-tumor substance Nr.159 with the internal label K22.175 according to the publication PCT/EP97/03245=WO97/48696 in the form of N-[4-(1-benzoylpiperidin-4-yl)-butyl]-3-(pyridin-3-yl)-acrylamide synthesized by the applicant was included in the experimental examinations. The results obtained therefrom confirm the above described finding on the useful effect according to the invention of the vitamin PP compounds.

NMRI mice = test system: NMRI mice
Description: Parallel to this, 500 mg/kg nicotinamide was simultaneously intraperitoneally administered each to the individual dosage groups. 7 days after the beginning of treatment, the blood picture of the individual animals was examined.

lymphocytes = experiment: Vitality of freshly isolated spleen lymphocytes (flow cytometry, propidium iodide / 3,3'-dihexyloxacarbocyanin iodide, 2 days); type: cell-based, Swiss mouse; conditions: Mus musculus, Lymphocyte
From the text: Many cytostatic agents and radiation therapies as well have a cytcotoxic effect not only on tumor cells but also on the blood cell system. This leads to a weakening of the immune defence which can lead to life threatening infections. In addition, this can result in a so-called tumor lyse syndrome which can, lead to the death of the patient by the relatively quick death of large cell masses. In order to test the possibility for a therapeutical use of nicotinic acid and/or nicotinamide for preventing such life threatening conditions by massive cell death, the effect of the substance was tested on freshly isolated lymphocytes as follows:
The spleen of a Swiss mouse served as a lymphocyte source.
The lymphocyte population was isolated from the spleen cell suspension over a ficoll gradient and taken up in IMEM-ZO culture medium with 0,1% dextran 70,000 and 2% foetal calf serum. […] Subsequently, 10,000 cells per each sample were measured on a flow-through cytometer and the percentage amount of vital cells in the population was determined. By means of the dose-response curves, IC50-values were calculated which were also employed in the following Tables for the characterization of the individual substances: […]

[1] = test system: Cryptic cells of the large intestine; experiment: Growth/vitality of primary cryptic cells of the large intestine (crystal violet, MTT-test, 4 days treatment); type: cell-based
From the text: Cryptic cells of the large intestine were isolated according to the method of Booth et al. (1995) with slight modifications. The removed large intestine was cut into pieces, the parts were finally cut after several-fold washing and digested with collagenase and dispase. Subsequently, the larger tissue pieces remaining in the suspension were sedimented, the supernatant was decanted and stored. The pellet was digested again under vigorous shaking with medium in order to release additional cryptic cells. After sedimentation, the supernatant was poured off again, combined with the first fraction and the cryptic cells were centrifuged at 50×g. After a further washing step, the centrifuge cryptic cells were suspended in culture medium and seeded at a density of 800 cells per well in 24-well-cultured dishes which were previously coated with collagen. The cells were incubated at 37° C. in a saturated water vapour atmosphere with 92.5% air and 7.5% CO2. […]
The growth of the culture was photometrically quantified after staining with crystal violet as a measure for the cell number and the vitality of the cells was determined with the MTT-test whose reaction depends on living cells with active mitochondria. Based on dose response curves, the IC50-values were calculated which are also used in the following Table 3 for characterization of the individual substance activity: […]

- IC50 (THP-1 cells; THP-1, THP-1 cells, + 0.1 mM nicotinic acid, read-out: IC50-Value for K22.175): > 30 nM
- IC50 (THP-1 cells; THP-1, THP-1 cells, + 1 mM nicotinamide, read-out: IC50-Value for K22.175): > 30 nM
- IC50 (THP-1 cells; THP-1, THP-1 cells, K22.175 alone, read-out: IC50-Value for K22.175): 0.5 nM
SMILES: O=C(C=Cc1cccnc1)NCCCCC1CCN(C(=O)c2ccccc2)CC1 [K22.175, N-[4-(1-benzoylpiperidin-4-yl)-butyl]-3-(pyridin-3-yl)-acrylamide]

SMILES: O=C(O)c1cccnc1 [nicotinic acid, reference compound]
- effect on the growth-inhibiting effect of K22.097 (THP-1 cells): abrogated

SMILES: NC(=O)c1cccnc1 [nicotinamide, reference compound]
- effect on the growth-inhibiting effect of K22.097 (THP-1 cells): abrogated
- Leukocyte number (NMRI mice; mouse, in vivo, ip, 500 mg/kg): 4,800 per μl

SMILES: O=C(CCc1cccnc1)NCCCCC1CCN(C(c2ccccc2)c2ccccc2)CC1 [K22.097, N-[4-(1-diphenylmethylpiperidin-4-yl)-butyl]-3-(pyridin-3-yl)-propionamide]
- IC50 (THP-1 cells; THP-1, read-out: IC50-Value for K22.097, THP-1 cells, + 0.1 mM nicotinic acid): > 10000 nM
- IC50 (THP-1 cells; THP-1, read-out: IC50-Value for K22.097, THP-1 cells, + 1 mM nicotinamide): > 10000 nM
- IC50 (THP-1 cells; THP-1, read-out: IC50-Value for K22.097, THP-1 cells, K22.097 alone): 10 nM
- Leukocyte number (NMRI mice; 2 × 100 mg/kg K22.097 orally + 2 × 500 mg/kg nicotinamide intraperitoneally, day 7): 6,900 per μl
- Leukocyte number (NMRI mice; 2 × 100 mg/kg K22.097 orally over 4 days, blood picture 7 days after beginning of treatment): 1,100 per μl
- Leukocyte number (NMRI mice; 2 × 120 mg/kg K22.097 orally + 2 × 500 mg/kg nicotinamide intraperitoneally, day 7): 5,900 per μl
- Leukocyte number (NMRI mice; 2 × 120 mg/kg K22.097 orally over 4 days, blood picture 7 days after beginning of treatment): 500 per μl
- IC50 (lymphocytes; read-out: IC50-Value for K22.097, mouse spleen lymphocytes, + 10 mM nicotinamide): > 1000 nM
- IC50 (lymphocytes; read-out: IC50-Value for K22.097, mouse spleen lymphocytes, K22.097 alone): 1 nM
- IC50 ([1]; read-out: IC50-Value for K22.097, primary intestine cryptic cells, + 1 mM nicotinamide): > 10000 nM
- IC50 ([1]; read-out: IC50-Value for K22.097, primary intestine cryptic cells, K22.097 alone): 100 nM
